Source: patent publication US20250017935A1, “7,8-DIHYDRO-5H-1,6-NAPHTHYRIDINE DERIVATIVES AS POSITIVE ALLOSTERIC MODULATORS OF THE MUSCARINIC ACETYLCHOLINE RECEPTOR M4 FOR TREATING NEUROLOGICAL AND PSYCHIATRIC DISORDERS” (Vanderbilt University, priority 2021, published 2025)

Molecular target: T1, Human M4 (Homo sapiens, UniProt P08173)
T1 construct: expressed in transfected cells; host or cells: CHO-K1 (ATCC), stably expressing hM4 and Gqi5
T1 sequence (P08173 1-479): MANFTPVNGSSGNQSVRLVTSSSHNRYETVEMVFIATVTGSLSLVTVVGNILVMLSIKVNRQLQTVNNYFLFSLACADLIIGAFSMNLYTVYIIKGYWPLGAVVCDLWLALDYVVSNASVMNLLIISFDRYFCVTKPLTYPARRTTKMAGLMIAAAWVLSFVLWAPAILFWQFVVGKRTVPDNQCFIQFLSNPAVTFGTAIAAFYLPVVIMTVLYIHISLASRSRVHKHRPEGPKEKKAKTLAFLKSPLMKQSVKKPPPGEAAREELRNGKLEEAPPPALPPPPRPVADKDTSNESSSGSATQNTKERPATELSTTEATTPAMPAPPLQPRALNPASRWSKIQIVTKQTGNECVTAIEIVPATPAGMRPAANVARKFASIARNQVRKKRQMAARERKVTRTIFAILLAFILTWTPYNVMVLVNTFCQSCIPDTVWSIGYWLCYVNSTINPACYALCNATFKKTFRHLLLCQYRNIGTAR
Assay: mAChR M4 cell-based functional assay (calcium flux, potentiation of EC20 acetylcholine response) in hM4-Gqi5 CHO-K1 cells
Conditions: for Emax at 30 µM: % ACh maximum at 30 μM, human M4 CHO-K1 cells; for EC50: CHO-K1 cells transfected with human M4 and Gqi5, positive allosteric modulator activity, EC20 acetylcholine
Description: Human M4 cDNA, along with the chimeric G protein Gqi5, were transfected into Chinese hamster ovary (CHO-K1) cells purchased from the American Type Culture Collection using commercially available Lipofectamine 2000 transfection reagent (Dalby, B. et al., Methods (2004) 33(2), 95-103). hM4-Gqi5 cells were grown in Ham's F-12 medium containing 10% heat-inactivated fetal bovine serum (FBS), 20 mM HEPES, 50 μg/mL G418 sulfate (CAS #108321-42-2), and 500 μg/mL Hygromycin B. rM4-Gqi5 cells were grown in DMEM containing 10% heat-inactivated FBS, 20 mM HEPES, 400 μg/mL G418 sulfate, and 500 μg/mL Hygromycin B.
For high throughput measurement of agonist-evoked increases in intracellular calcium, CHO-K1 cells stably expressing muscarinic receptors were plated in growth medium lacking G418 sulfate and hygromycin at 15,000 cells/20 μL/well in Greiner 384-well black-walled, tissue culture (TC)-treated, clear-bottom plates (VWR). Cells were incubated overnight at 37° C. and 5% CO2. The next day, cells were washed using an ELX 405 (BioTek) with assay buffer; the final volume was then aspirated to 20 μL. Next, 20 μL of a 2.3 μM stock of Fluo-4/acetoxymethyl ester (Invitrogen, Carlsbad, CA), prepared as a 2.3 mM stock in DMSO and mixed in a 1:1 ratio with 10% (w/v) Pluronic F-127 and diluted in assay buffer, was added to the wells and the cell plates were incubated for 50 minutes at 37° C. and 5% CO2. Dye was removed by washing with the ELX 405 and the final volume was aspirated to 20 μL. Compound master plates were formatted in an 11 point concentration-response curve (CRC) format (1:3 dilutions) in 100% DMSO with a starting concentration of 10 mM using a BRAVO liquid handler (Agilent). Test compound CRCs were then transferred to daughter plates (240 nL) using the Echo acoustic plate reformatter (Labcyte, Sunnyvale, CA) and then diluted into assay buffer (40 μL) to a 2× stock using a Thermo Fisher Combi (Thermo Fisher Scientific, Waltham, MA).
Calcium flux was measured using the Functional Drug Screening System (FDSS) 6000 or 7000 (Hamamatsu Corporation, Tokyo, Japan) as an increase in the fluorescent static ratio. Compounds were applied to cells (20 μL, 2×) using the automated system of the FDSS at 2-4 seconds into the protocol and the data were collected at 1 Hz. […] Agonist activity was analyzed as a concentration-dependent increase in calcium mobilization upon compound addition. Positive allosteric modulator activity was analyzed as a concentration-dependent increase in the EC20 acetylcholine response. With the acetylcholine EC20 set as baseline, the test compound EC50 is determined as the concentration that produces an increase above baseline of 50% of the maximum increase in acetylcholine response elicted by the test compound. Antagonist activity was analyzed as a concentration-dependent decrease in the EC80 acetylcholine response. Concentration-response curves were generated using a four-parameter logistical equation in XLFit curve fitting software (IDBS, Bridgewater, NJ) for Excel (Microsoft, Redmond, WA) or Prism (GraphPad Software, Inc., San Diego, CA).
Compounds were synthesized as described above. Activity (EC50 and Emax) was determined in the mAChR M4 cell-based functional assay as described above and the data are shown in Table 5. The compound numbers correspond to the compound numbers used in Examples 1-13 and Tables 1, 2, and 3.

Row | Emax at 30 µM [%] | EC50 [nM] | SMILES
1 | 78 | 160 | [2H]c1csc2ncnc(N3CCc4ncc(C(F)(F)F)cc4C3)c12 [Compound 36, 5-deuterio-4-[3-(trifluoromethyl)-7,8-dihydro-5H-1,6-naphthyridin-6-yl]thieno[2,3-d]pyrimidine]
2 | 55 | 100 | Cn1nccc1Nc1cnc2c(c1)CN(c1ncnc3sccc13)CC2 [Compound 34, N-(2-methylpyrazol-3-yl)-6-thieno[2,3-d]pyrimidin-4-yl-7,8-dihydro-5H-1,6-naphthyridin-3-amine]
3 | 78 | 500 | Cc1coc2ncnc(N3CCc4ncc(Cc5cccc(F)c5)cc4C3)c12 [Compound 54, 4-[3-[(3-fluorophenyl)methyl]-7,8-dihydro-5H-1,6-naphthyridin-6-yl]-5-methyl-furo[2,3-d]pyrimidine]
4 | 86 | 50 | Cc1coc2ncnc(N3CCc4ncc(C(F)(F)F)cc4C3)c12 [Compound 41, 5-methyl-4-[3-(trifluoromethyl)-7,8-dihydro-5H-1,6-naphthyridin-6-yl]furo[2,3-d]pyrimidine]
5 | 81 | 280 | Cc1coc2ncnc(N3CCc4ncc(Cc5ccccc5F)cc4C3)c12 [Compound 53, 4-[3-[(2-fluorophenyl)methyl]-7,8-dihydro-5H-1,6-naphthyridin-6-yl]-5-methyl-furo[2,3-d]pyrimidine]
6 | 94 | 710 | Cc1noc2ncnc(N3CCc4ncc(C(F)(F)F)cc4C3)c12 [Compound 40, 3-methyl-4-[3-(trifluoromethyl)-7,8-dihydro-5H-1,6-naphthyridin-6-yl]isoxazolo[5,4-d]pyrimidine]
7 | 102 | 90 | Cc1ccc(-c2cnc3c(c2)CN(c2ncnc4occ(C)c24)CC3)cn1 [Compound 48, 5-methyl-4-[3-(6-methyl-3-pyridyl)-7,8-dihydro-5H-1,6-naphthyridin-6-yl]furo[2,3-d]pyrimidine]
8 | 74 | 80 | Cc1coc2ncnc(N3CCc4ncc(-c5ccnn5C)cc4C3)c12 [Compound 56, 5-methyl-4-[3-(2-methylpyrazol-3-yl)-7,8-dihydro-5H-1,6-naphthyridin-6-yl]furo[2,3-d]pyrimidine]
9 | 58 | 440 | CC(C)c1cc2c(N3CCc4ncc(N5CCCn6nccc65)cc4C3)ncnc2s1 [Compound 31, 4-[3-(6,7-dihydro-5H-pyrazolo[1,5-a]pyrimidin-4-yl)-7,8-dihydro-5H-1,6-naphthyridin-6-yl]-6-isopropyl-thieno[2,3-d]pyrimidine]
10 | 46 | 200 | Fc1ccccc1Oc1cnc2c(c1)CN(c1ncnc3sccc13)CC2 [Compound 33, 4-[3-(2-fluorophenoxy)-7,8-dihydro-5H-1,6-naphthyridin-6-yl]thieno[2,3-d]pyrimidine]
11 | 69 | 100 | FC(F)(F)c1cnc2c(c1)CN(c1nc(Cl)nc3c1CCC3)CC2 [Compound 57, 6-(2-chloro-6,7-dihydro-5H-cyclopenta[d]pyrimidin-4-yl)-3-(trifluoromethyl)-7,8-dihydro-5H-1,6-naphthyridine]
12 | 83 | 60 | Cc1coc2ncnc(N3CCc4ncc(-c5cnn(C6CC6)c5)cc4C3)c12 [Compound 38, 4-[3-(1-cyclopropylpyrazol-4-yl)-7,8-dihydro-5H-1,6-naphthyridin-6-yl]-5-methyl-furo[2,3-d]pyrimidine]
13 | 89 | 510 | Cc1ccc(-c2cnc3c(c2)CN(c2ncnc4onc(C)c24)CC3)cn1 [Compound 51, 3-methyl-4-[3-(6-methyl-3-pyridyl)-7,8-dihydro-5H-1,6-naphthyridin-6-yl]isoxazolo[5,4-d]pyrimidine]
14 | 56 | 370 | Clc1nc2c(c(N3CCc4ncc(N5CCOc6ncccc65)cc4C3)n1)COC2 [Compound 63, 1-[6-(2-chloro-5,7-dihydrofuro[3,4-d]pyrimidin-4-yl)-7,8-dihydro-5H-1,6-naphthyridin-3-yl]-2,3-dihydropyrido[2,3-b][1,4]oxazine]

More lines, now with the values behind:

Row | SMILES | Emax at 30 µM [%] | EC50 [nM]
15 | Cc1cc2c(N3CCc4ncc(N5CCOc6ncccc65)cc4C3)ncnc2s1 [Compound 13, 1-[6-(6-methylthieno[2,3-d]pyrimidin-4-yl)-7,8-dihydro-5H-1,6-naphthyridin-3-yl]-2,3-dihydropyrido[2,3-b][1,4]oxazine] | 121 | 70
16 | FC(F)(F)c1cnc2c(c1)CN(c1ncnc3ccsc13)CC2 [Compound 10, 4-[3-(trifluoromethyl)-7,8-dihydro-5H-1,6-naphthyridin-6-yl]thieno[3,2-d]pyrimidine] | 79 | 120
17 | Cc1cc2c(N3CCc4ncc(-c5cnc(C)s5)cc4C3)ncnc2s1 [Compound 21, 6-methyl-4-[3-(2-methylthiazol-5-yl)-7,8-dihydro-5H-1,6-naphthyridin-6-yl]thieno[2,3-d]pyrimidine] | 88 | 250
18 | FC(F)(F)c1cnc2c(c1)CN(c1ncnc3sc(Br)cc13)CC2 [Compound 30, 6-bromo-4-[3-(trifluoromethyl)-7,8-dihydro-5H-1,6-naphthyridin-6-yl]thieno[2,3-d]pyrimidine] | 88 | 80
19 | FC(F)(F)c1cnc2c(c1)CN(c1ncnc3scc(Br)c13)CC2 [Compound 29, 5-bromo-4-[3-(trifluoromethyl)-7,8-dihydro-5H-1,6-naphthyridin-6-yl]thieno[2,3-d]pyrimidine] | 74 | 310
20 | Cc1csc2c(N3CCc4ncc(N5CCOc6ncccc65)cc4C3)ncnc12 [Compound 24, 1-[6-(7-methylthieno[3,2-d]pyrimidin-4-yl)-7,8-dihydro-5H-1,6-naphthyridin-3-yl]-2,3-dihydropyrido[2,3-b][1,4]oxazine] | 70 | 220
21 | Cc1csc2ncnc(N3CCc4ncc(N5CCCn6nccc65)cc4C3)c12 [Compound 25, 4-[3-(6,7-dihydro-5H-pyrazolo[1,5-a]pyrimidin-4-yl)-7,8-dihydro-5H-1,6-naphthyridin-6-yl]-5-methyl-thieno[2,3-d]pyrimidine] | 96 | 60
22 | Cc1ccc(-c2cnc3c(c2)CN(c2ncnc4sc(C)cc24)CC3)cn1 [Compound 14, 6-methyl-4-[3-(6-methyl-3-pyridyl)-7,8-dihydro-5H-1,6-naphthyridin-6-yl]thieno[2,3-d]pyrimidine] | 97 | 190
23 | Cc1nc(N2CCc3ncc(C(F)(F)F)cc3C2)c2c(C)c(C)sc2n1 [Compound 7, 2,5,6-trimethyl-4-[3-(trifluoromethyl)-7,8-dihydro-5H-1,6-naphthyridin-6-yl]thieno[2,3-d]pyrimidine] | 88 | 3280
24 | Cc1cc2c(N3CCc4ncc(C(F)(F)F)cc4C3)ncnc2s1 [Compound 9, 6-methyl-4-[3-(trifluoromethyl)-7,8-dihydro-5H-1,6-naphthyridin-6-yl]thieno[2,3-d]pyrimidine] | 76 | 30
